In patent publication US11628172B2, “Methods of treating chronic lymphocytic leukemia using 2-(2,6-dioxopiperidin-3-yl)-4-((2-fluoro-4-((3-morpholinoazetidin-1-yl)methyl)benzyl)amino)isoindoline-1,3-dione” (Celgene Corporation, priority 2019, dated 2023):
Read-outs that look alike come from different tables or passages of the source.

What was measured:
[1] = system: primary CLL cells from patient-derived blood; experiment: Cell proliferation and viability assay for B-cell CLL patient cells (ex vivo co-culture with CD154-expressing fibroblasts); assay type: cell-based, human; parameters: AUC: unit not given here; details: for Emax / IC50: Homo sapiens, CLL cell; for Emax: read-out: Emax (percentage of tumor cells remaining); for AUC: viable cell counts
Experimental: The following are examples of cell-based assays that can be used to determine the anti-proliferative activity and apoptosis effect of compounds described herein using exemplary CLL patient cells. The effect of Compound 1 on the viability and apoptosis of CLL B cells was assessed utilizing an ex vivo model.
CLL is characterized by accumulation of clonal CD5^+CD19^+ lymphocytes resistant to apoptosis. The effect of Compound 1 on the viability and apoptosis of CLL B cells was assessed utilizing an ex vivo model where primary CLL cells from patient-derived blood were stimulated with 10% fetal bovine serum (FBS), 5 ng/mL recombinant human interleukin-4 (rh IL-4), 10 ng/mL recombinant human interleukin-10 (rh IL-10) and co-cultured with fibroblast expressing surface CD154 (CD40L). The percentage of cells staining with Annexin V and/or DRAQ-7 was measured by flow cytometry assay after 3, 6 or 10 days of incubation with vehicle control or with increasing concentrations of Compound 1 ranging from 0.001 to 1 μM. Peripheral blood mononuclear cells (PBMCs) from CLL patients (Table 5) containing 70%-95% of CD5^+CD19^+ tumor cells were cultured on a monolayer of CD154-expressing fibroblasts in 24-well plates at a density of patient cells of 0.8×10^6 cells/well in RPMI 1640 medium supplemented with 10% FBS, 5 ng/mL rh IL-4 and 10 ng/mL rh IL-10 and were treated with vehicle control (0.1% DMSO) or increasing concentrations of Compound 1 ranging from 0.001 to 1 μM. After treatment, flow cytometric analysis was used to determine the number of cells that were viable or apoptotic.
After 3, 6 or 10 days of compound treatment, cells were incubated with Annexin V to capture the externalization of phosphatidylserine as a result of disturbed lipid asymmetry in the plasma membrane of cells, a well-characterized event in apoptosis, and the vital far-red fluorescent DNA dye DRAQ-7, that only stains the nuclei of dead and permeabilized cells, and analyzed by flow cytometry (Attune®, Thermo Fisher). Analysis was then performed to determine the percentage of viable live cells (Annexin V and DRAQ-7 double negative staining cells) using FlowJo_V10 and graphed with GraphPad Prism 7.03 software. The live cell count for every condition was normalized to the DMSO control (considered as 100% viable cells) to calculate the percentage of viable cells remaining after treatment. The IC50 (50% inhibitory concentration) and Emax (maximum efficacy eliminating tumor cells achieved) values were then calculated by performing nonlinear regression curve fitting using log(inhibitor) vs. normalized response—variable slope analysis on GraphPad Prism 7.03. Area under the curve (AUC) value of the viable cell counts over time was calculated by performing area under curve analysis on GraphPad Prism 7.03 (Table 6).

CI CLL cell line = experiment: Cell proliferation and viability assay (384-well flow cytometry, Annexin V/DRAQ7), CI; assay type: cell-based; details: 120 hours
Experimental: (§1) The following are examples of cell-based assays that can be used to determine the anti-proliferative activity and apoptotic effect of compounds described herein using exemplary CLL cell lines (Table 3). The in vitro growth inhibitory activity of Compound 1 described herein was evaluated using a 384-well flow cytometry assay.
(§2) The cell lines were plated under the conditions shown in Table 3 in 384-well flat bottom plates and incubated with increasing concentrations of compound ranging from 0.00015 to 10 μM or dimethyl sulfoxide (DMSO) control. The final concentration of DMSO was 0.1% (v/v). Following the addition of Compound 1 or DMSO and incubation for 120 hours, cell number and cell death were analyzed by flow cytometry (Attune®, Thermo Fisher) using Annexin V and the live-cell impermeant DNA dye, DRAQ7. […]
(§3) Flow cytometry data analysis was then performed using the Flow Jo_v10 software to determine the number of viable cells (Annexin V and DRAQ7 double negative staining cells) and percentage of apoptotic cells (Annexin V positive cells) for each condition. […] The IC50 (50% inhibitory concentration) and Emax (maximum efficacy achieved) values were then calculated by performing nonlinear regression curve fitting using log (inhibitor) vs. normalized response—variable slope analysis on GraphPad Prism 7.03. […]

HG3 CLL cell line = experiment: Cell proliferation and viability assay (384-well flow cytometry, Annexin V/DRAQ7), HG3; assay type: cell-based; details: 120 hours
Experimental: as §1, §2, §3

[2] = Pt10, ex vivo CLL patient cells

In the case of O=C1CC[C@H](N2C(=O)c3cccc(NCc4ccc(CN5CC(N6CCOCC6)C5)cc4F)c3C2=O)C(=O)N1 [Compound 1, (S)-2-(2,6-dioxopiperidin-3-yl)-4-((2-fluoro-4-((3-morpholinoazetidin-1-yl)methyl)benzyl)amino)isoindoline-1,3-dione], the Emax ([1]; Pt1, ex vivo CLL patient cells) is reported as 4.62%, the IC50 ([1]; Pt2, ex vivo CLL patient cells, 0.001 to 1 μM, viable cells normalized to DMSO, read-out: IC50) is reported as 1.05 nM and the Emax ([1]; Pt2, ex vivo CLL patient cells) is reported as 30.6%. It also gave an IC50 ([1]; Pt3, ex vivo CLL patient cells, 0.001 to 1 μM, viable cells normalized to DMSO, read-out: IC50) of 0.723 nM, an Emax ([1]; Pt3, ex vivo CLL patient cells) of 13% and an Emax ([1]; Pt4, ex vivo CLL patient cells) of 6.5%. For the same molecule, the IC50 ([1]; Pt5, ex vivo CLL patient cells, 0.001 to 1 μM, viable cells normalized to DMSO, read-out: IC50) was 0.305 nM, the Emax ([1]; Pt5, ex vivo CLL patient cells) was 22.8% and the IC50 ([1]; Pt6, ex vivo CLL patient cells, 0.001 to 1 μM, viable cells normalized to DMSO, read-out: IC50) was 2.75 nM. The Emax ([1]; Pt6, ex vivo CLL patient cells) was 27.4%, the IC50 ([1]; Pt7, ex vivo CLL patient cells, 0.001 to 1 μM, viable cells normalized to DMSO, read-out: IC50) was 0.036 nM and the Emax ([1]; Pt7, ex vivo CLL patient cells) was 5.87%. The IC50 ([1]; Pt8, ex vivo CLL patient cells, 0.001 to 1 μM, viable cells normalized to DMSO, read-out: IC50) was 0.209 nM, the Emax ([1]; Pt8, ex vivo CLL patient cells) was 4.82% and the IC50 ([1]; Pt9, ex vivo CLL patient cells, 0.001 to 1 μM, viable cells normalized to DMSO, read-out: IC50) was 0.0652 nM. The Emax ([1]; Pt9, ex vivo CLL patient cells) was 4.14%, the IC50 ([1]; Pt10, ex vivo CLL patient cells, 0.001 to 1 μM, viable cells normalized to DMSO, read-out: IC50) was 0.129 nM and the Emax [1, 2] was 10.2%. It also gave an IC50 ([1]; all CLL patient samples evaluated, read-out: concentrations that led to 50% inhibition of growth (IC50)) of 0.1 to 3 nM, an AUC ([1]; Pt1, ex vivo CLL patient cells) of 32.79 and an AUC ([1]; Pt2, ex vivo CLL patient cells) of 181.6. The AUC ([1]; Pt3, ex vivo CLL patient cells) was 106.1, the AUC ([1]; Pt4, ex vivo CLL patient cells) was 44.01 and the AUC ([1]; Pt5, ex vivo CLL patient cells) was 139.6. It also gave an AUC ([1]; Pt6, ex vivo CLL patient cells) of 154.9, an AUC ([1]; Pt7, ex vivo CLL patient cells) of 44.86 and an AUC ([1]; Pt8, ex vivo CLL patient cells) of 75.03. For the same molecule, the AUC ([1]; Pt9, ex vivo CLL patient cells) was 48.14, the AUC [1, 2] was 57.87 and the “% Viable Cells Emax (percentage of tumor cells remaining)” value (CI CLL cell line) was 53.58%. For the same molecule, the “% Viable Cells Emax (percentage of tumor cells remaining)” value (HG3 CLL cell line) was 59.58%.
